Measured values as given in patent US5922759A, “Butenolide endothelin antagonists” (Warner-Lambert Company, priority 1997, dated 1999).
Read-outs that look alike come from different tables or passages of the source. Where a SMILES comes first, the peptide text is derived from it. Where no end group is shown, it is not given here. [ ]: non-standard residue; d: D form.

Assays:
[1] = target: T1, ETA (rabbit femoral artery) (Oryctolagus cuniculus, UniProt A5A8K3); test: Antagonism of ET-1 stimulated vasoconstriction (VERA-A) in the rabbit femoral artery; settings: ET-1 agonist, antagonist added 30 minutes prior
T1 construct: Femoral and pulmonary arteries were isolated, cleaned of connective tissue, and cut into 4-mm rings; from tissue; host or cells: endothelium-denuded femoral artery rings of male New Zealand rabbits
T1 sequence (A5A8K3 21-427): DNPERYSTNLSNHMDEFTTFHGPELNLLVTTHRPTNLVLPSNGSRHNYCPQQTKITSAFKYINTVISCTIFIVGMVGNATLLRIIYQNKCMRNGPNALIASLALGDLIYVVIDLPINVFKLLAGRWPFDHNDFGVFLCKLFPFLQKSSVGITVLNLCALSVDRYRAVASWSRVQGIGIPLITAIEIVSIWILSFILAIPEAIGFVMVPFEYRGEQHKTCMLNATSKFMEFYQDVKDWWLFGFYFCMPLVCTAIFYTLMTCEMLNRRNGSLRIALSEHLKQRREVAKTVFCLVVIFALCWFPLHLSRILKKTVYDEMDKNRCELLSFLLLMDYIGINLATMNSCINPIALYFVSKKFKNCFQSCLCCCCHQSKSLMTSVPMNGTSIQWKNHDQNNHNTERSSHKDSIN
Protocol: Male New Zealand rabbits were killed by cervical dislocation and exsanguination. Femoral and pulmonary arteries were isolated, cleaned of connective tissue, and cut into 4-mm rings. The endothelium was denuded by placing the rings over hypodermic tubing (32 gauge for femoral rings and 28 gauge for pulmonary rings, Small Parts, Inc, Miami, Fla.) and gently rolling them. […] Resting tension was adjusted to 3.0 g for femoral and 4.0 g pulmonary arteries; the rings were left for 90 minutes to equilibrate.

endothelin receptor ETA = target: T2, endothelin receptor ETA (Homo sapiens, UniProt P25101); type: binding; settings: Human cloned receptor data (footnote c); read-out: ERBA-A IC50
T2 sequence (P25101 21-427): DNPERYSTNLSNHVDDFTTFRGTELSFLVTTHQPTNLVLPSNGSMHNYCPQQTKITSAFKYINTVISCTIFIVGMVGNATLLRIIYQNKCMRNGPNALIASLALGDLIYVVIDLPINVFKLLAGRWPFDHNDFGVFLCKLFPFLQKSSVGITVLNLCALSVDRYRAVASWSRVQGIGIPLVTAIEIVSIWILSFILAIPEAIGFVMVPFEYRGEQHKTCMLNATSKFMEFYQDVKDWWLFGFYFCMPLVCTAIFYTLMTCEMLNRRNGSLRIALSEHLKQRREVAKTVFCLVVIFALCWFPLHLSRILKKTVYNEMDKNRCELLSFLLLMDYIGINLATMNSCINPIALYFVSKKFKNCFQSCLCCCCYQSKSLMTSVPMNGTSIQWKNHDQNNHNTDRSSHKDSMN

human ETB receptor = target: T3, human ETB receptor (Homo sapiens, UniProt P24530); type: binding, human (method text also: rat cerebellar membranes); settings: Human cloned receptor data (footnote c); read-out: ERBA-B IC50
T3 construct: expressed in transfected cells; host or cells: CHO-K1
T3 sequence (P24530 27-442): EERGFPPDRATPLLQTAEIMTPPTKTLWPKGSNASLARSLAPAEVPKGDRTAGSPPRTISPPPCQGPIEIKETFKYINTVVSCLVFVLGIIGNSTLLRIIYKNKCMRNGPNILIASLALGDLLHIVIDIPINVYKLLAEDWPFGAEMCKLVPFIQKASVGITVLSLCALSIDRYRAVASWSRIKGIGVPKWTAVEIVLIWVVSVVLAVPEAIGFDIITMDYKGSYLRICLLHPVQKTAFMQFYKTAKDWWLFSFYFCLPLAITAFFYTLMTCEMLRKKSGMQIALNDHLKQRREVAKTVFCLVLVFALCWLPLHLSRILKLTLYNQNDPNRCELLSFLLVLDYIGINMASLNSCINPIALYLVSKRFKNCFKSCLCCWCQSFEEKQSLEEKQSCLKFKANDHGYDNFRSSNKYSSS
Excerpt: The compounds of Formula I are valuable antagonists of endothelin.
ENDOTHELIN RECEPTOR BINDING ASSAY-B (ERBA-B) [^125 I]-ET-1 BINDING IN RAT CEREBELLAR MEMBRANES
materials and Terms Used:
Count filters for radioactivity in gamma counter.
The above process has also been modified by using human recombinant CHO-K1 cells.
The tissue used for human ETB was recombinant human ETB receptor expressed in CHO-K1 cells (chinese hamster ovary cells). The gene for human ETB receptor was cloned and inserted into the pRc-CMW expression vector, then transfected into CHO-K1 cells by electroporation. For binding assays, membranes (0.7 mg protein) of CHO-K1 cells expressing recombinant human ETB receptor were used.
^c Human cloned receptor data

brain = settings: new model of local ischemia in the brain; cited from earlier work
central nervous system = settings: intracerebroventricular, rats; cited from earlier work
cerebral vasospasm [2] = settings: rabbit; cited from earlier work
cerebral vasospasm [3] = settings: rat, cited from earlier work
ETA = settings: mouse endotoxic shock; cited from earlier work
[4] = tested on: basilar artery vasoconstriction; settings: canine two-hemorrhage model, after 7 days; cited from earlier work

Molecule `CCOC(=O)CNC(=O)OC1(c2ccc(OC)cc2)OC(=O)C(c2ccc3c(c2)OCO3)=C1Cc1cc(OC)c(OC)c(OC)c1` (stereo not shown) [Example 3, [4-Ben zo[1.3]dioxol-5-yl-2-(4-methoxy-phenyl)-5-oxo-3-(3,4,5-trimethoxy-benzyl)-2,5-dihydro-furan-2-yloxycarbonylamino]-acetic acid ethyl ester] has a Kb ([1]; read-out: VERA-A pA2 (converted)) of 50.1 nM, an IC50 (endothelin receptor ETA) of 0.35 nM and an IC50 (human ETB receptor) of 1800 nM.
For “ET-1: a potent vasoconstrictor, is a 21 amino acid bicyclic peptide (CSCSSLMDKECVYFCHLDIIW; ends and bridges not checked; also: bicyclic peptide; UniProt P05305 53-73, looked up)”, the lesion development (brain) is given as “induced lesion development” and the behavioral effects (central nervous system) is given as “evoke several behavioral effects”.
Work on `COc1ccc(C2(OC(=O)N[C@@H](C)c3cccc4ccccc34)OC(=O)C(c3ccc4c(c3)OCO4)=C2Cc2cc(OC)c(OC)c(OC)c2)cc1` (stereo partly shown) [Example 2, (1-Naphthalen-1-yl-ethyl)-carbamic acid-4-benzo[1,3]dioxol-5-yl-2-(4-methoxy-phenyl)-5-oxo-3-(3,4,5-trimethoxy-benzyl)-2,5-dihydro-furan-2-yl ester] yielded an IC50 (endothelin receptor ETA) of 1 nM.
In the case of `COc1ccc(C2(OC(=O)N[C@@H](C)c3ccccc3)OC(=O)C(c3ccc4c(c3)OCO4)=C2Cc2ccccc2)cc1` (stereo partly shown) [Example 1, (1-Phenyl-ethyl)-carbamic acid-4-benzo[1,3]dioxol-5-yl-3-benzyl-2-(4-methoxy-phenyl)-5-oxo-2,5-dihydro-furan-2-yl ester], the “VERA-A pA2” value [1] is reported as 6.1.
For `CC(C)C[C@@H]1NC(=O)[C@@H](C(C)C)NC(=O)[C@@H]2CCCN2C(=O)[C@@H](CC(=O)O)NC(=O)[C@@H](Cc2c[nH]c3ccccc23)NC1=O` [BQ-123] (cyclo(L[dW][dD]P[dV])), the “effect on early cerebral vasospasm following SAH” value (cerebral vasospasm [2]) is listed as “prevents early cerebral vasospasm”, the “effect on early cerebral vasospasm following SAH” value (cerebral vasospasm [3]) is listed as “prevents early cerebral vasospasm” and the survival rate (ETA) is listed as “significantly increased the survival rate”.
For `COc1cccc(Oc2c(NS(=O)(=O)c3ccc(C(C)(C)C)cc3)ncnc2OCCO)c1` [Ro 46-2005], the “effect on systemic arterial blood pressure” value (cerebral vasospasm [3]; SAH) is listed as “no significant effect on systemic arterial blood pressure” and the “effect on early cerebral vasospasm following SAH” value (cerebral vasospasm [3]) is listed as “prevent early cerebral vasospasm”.
In the case of FR 139317, the “inhibition of vasoconstriction of the basilar artery” value [4] is listed as “significantly inhibited the vasoconstriction of the basilar artery after 7 days”.
